Inconclusive results are not listed. Active and inactive are the calls of the source.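 The calls were made as follows: active = score of 100, fluorescent reporter fully moved to nucleus as with estrogen, or estrogen effect fully blocked; inactive = score of 0 or 50, partial or no effect.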
Each molecule was assayed against Estrogen receptor (Homo sapiens) (UniProt P03372) (assay: ERalpha agonist signaling via PH-RFP relocation – imaging, Cos7 ERalpha-GFP, PH-RFP reporter, orthogonal assay for ERalpha ligand project (AID 1226)). Settings: PIP3 nuclear translocation imaging, at 10 µM, stronger effect = higher value.
Chain of Estrogen receptor (Homo sapiens) (P03372 whole entry, looked up): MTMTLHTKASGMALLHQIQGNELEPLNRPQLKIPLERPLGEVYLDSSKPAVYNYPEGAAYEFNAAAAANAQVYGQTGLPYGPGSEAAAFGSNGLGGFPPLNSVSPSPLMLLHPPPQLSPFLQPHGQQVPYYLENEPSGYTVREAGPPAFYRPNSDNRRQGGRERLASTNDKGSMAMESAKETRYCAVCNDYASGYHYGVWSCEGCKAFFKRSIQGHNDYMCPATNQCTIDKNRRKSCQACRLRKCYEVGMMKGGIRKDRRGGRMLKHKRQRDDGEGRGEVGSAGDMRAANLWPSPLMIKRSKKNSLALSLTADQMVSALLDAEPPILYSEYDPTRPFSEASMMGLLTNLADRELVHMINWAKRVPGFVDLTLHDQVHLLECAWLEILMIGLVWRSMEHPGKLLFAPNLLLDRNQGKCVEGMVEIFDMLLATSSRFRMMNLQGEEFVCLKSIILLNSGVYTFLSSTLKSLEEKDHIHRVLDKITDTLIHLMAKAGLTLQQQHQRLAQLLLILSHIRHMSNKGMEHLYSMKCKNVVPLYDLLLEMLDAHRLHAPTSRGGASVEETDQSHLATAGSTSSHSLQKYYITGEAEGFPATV
Nc1ncnc2c1ncn2C1CCC(CO)C(O)C1 (stereo not drawn) gave a translocation response score of 100. In the case of O=C(O)c1ccc2c(c1)C1C(Cl)C(Sc3ccccc3[N+](=O)[O-])CC1C(c1cccc([N+](=O)[O-])c1)N2 (stereo not drawn), the translocation response score is reported as 0 (inactive). Work on Cc1cc(C)c2c(c1)[C@@H]1C=CC[C@@H]1[C@H](c1ccc(S(=O)(=O)N3CCOCC3)cc1)N2 yielded a translocation response score of 100. For COc1ccccc1N1CCN(C(=O)c2ccc3nc(-c4ccco4)c(-c4ccco4)nc3c2)CC1, the translocation response score was 50 (inactive). In the case of COc1cccc(NS(=O)(=O)c2ccc3c(c2)C2C=CCC2C(c2ccc(C(=O)O)cc2)N3)c1 (stereo not drawn), the translocation response score is reported as 50 (inactive). Cc1cc(-c2nn3c(-c4ccccc4)nnc3s2)c2ccccc2n1 was tested, and the translocation response score was 100. With Brc1cc2c(cc1C1Nc3ccccc3C3C=CCC31)OCO2 (stereo not drawn) the translocation response score was 0 (inactive). With O=C(O)c1cc(Cl)c2c(c1)[C@@H]1C=CC[C@@H]1[C@H](c1ccc(S(=O)(=O)N3CCOCC3)cc1)N2 the translocation response score was 50 (inactive).

— PubChem BioAssay AID1226 (NMMLSC, 2008)
